Assay results: patent publication US20240226117A1, “TREATMENT OF CONGENITAL ADRENAL HYPOPLASIA” (ReveraGen BioPharma, Inc., priority 2021, published 2024)

How the values were obtained:
Type in all cases: in vivo, human
[1] = VBP15-002 Phase IIa multiple ascending dose trial: pharmacokinetics and safety; conditions: DMD patients
Method: Vamorolone clinical studies have been conducted in adult male volunteers and boys with DMD, a disorder in which skeletal muscle is in a chronic inflammatory state. Two consecutive open-label dose-ranging studies in 48 DMD patients aged 4 to <7 years (corticosteroid-naïve) were conducted (Phase IIa, VBP15-002; Phase IIa, VBP15-003). Doses were tested over a 24-fold dose range (0.25, 0.75, 2.0, and 6.0 mg/kg/day), with 12 participants per group. The first multiple ascending dose (MAD) cohort trial-tested pharmacokinetics (PK) and safety for 2 weeks of drug dosing followed by a 2-week washout (VBP15-002). […] All DMD participants completed the MAD study and then continued on the same dose for a 24-week dose-finding (efficacy and safety) extension study (VBP15-003).
(§1) Three consecutive clinical trials of vamorolone treatment of DMD were conducted by CINRG (VBP15-002 [NCT02760264]: VBP15-003 [NCT02760277]: VBP15-LTE [NCT03038399]). A total of 48 participants (ages 4 to <7 years) were initially enrolled into VBP15-002, with trial participants completing month 12 of the 24-month VBP15-LTE study.
VBP15-002 (Phase IIa: two weeks on the drug, two weeks off drug) enrolled 48 corticosteroid-naïve participants with DMD, and all 48 participants completed the study and enrolled into VBP15-003 (Phase IIa extension: 24-week treatment). […]

[2] = test system: DMD participants; assay: VBP15-003/VBP15-LTE motor outcomes over 18 months (TTSTAND, TTRW, TTCLIMB, 6MWT, NSAA); conditions: ANCOVA; for TTCLIMB velocity, LS mean difference (SE) / TTSTAND velocity, LS mean difference (SE): vamorolone 2.0 or 6.0 mg/kg/day 18 months versus corticosteroid-naïve DNHS
Method: as §1
The consecutive vamorolone trials (VBP15-002, VBP15-003, VBP15-LTE) were open-label with no placebo comparator. Corticosteroid-naïve and corticosteroid-treated DMD participant comparators were group-matched participants from the CINRG DNHS (NCT00468832). The CINRG DNHS was an observational, prospective case-control study of 551 participants (440 with DMD, 111 healthy peers). For group matching between vamorolone-treated participants and CINRG DNHS participants, prespecified criteria were defined for matching within the interim statistical analysis plan (iSAP). Age-matched CINRG DNHS participants included those continuously corticosteroid-naïve over an 18-month period (n=19) or continuously corticosteroid-treated over an 18-month period (n=68). For the 68 corticosteroid-treated participants, as this was an observational cohort, corticosteroid doses and regimens varied based on clinician discretion. Although all 68 participants were treated for 18 months continuously, the age at initiation of corticosteroids varied. Thus, the total duration of corticosteroid treatment was longer than 18 months for most participants.
Assessments of efficacy were motor outcomes (primary outcome: time to stand from supine [TTSTAND]: secondary outcomes: time to run/walk 10 meters [TTRW], time to climb four stairs [TTCLIMB], distance covered in 6-minute walk test [6MWT], and the North Star Ambulatory Assessment [NSAA]). 6MWT and NSAA were not assessed in most CINRG DNHS participants and were not compared to vamorolone-treated participants. According to standard operating procedures, clinical evaluators were trained to harmonize the CINRG vamorolone, CINRG DNHS, and CINRG prednisone studies. Reliability of these outcomes (percent coefficient of variation) has been reported for the VBP15-002/VBP15-003 studies. Assessments were done at baseline (VBP15-002 entry), 24 weeks (VBP15-003 last visit), and 18 months (VBP15-LTE midpoint assessment at 12 months).
Only participants completing VBP15-002 and VBP15-003 were eligible to enroll in VBP15-LTE. Participants received vamorolone at 1 of 4 dose levels (0.25, 0.75, 2.0, or 6.0 mg/kg/day) and at the same dose level in both the 4-week VBP15-002 trial and the 24-week VBP15-003 trial. If participants, their families, and their physicians wished to continue vamorolone treatment upon exiting the VBP15-003 trial, they were offered participation in the 24-month long-term extension (VBP15-LTE). The last visit of the VBP15-003 trial was commensurate with the first visit of the VBP15-LTE trial. In all studies, study medication was provided as 4% flavored liquid suspension and was dosed according to body weight and given once daily in the morning with food.
Vamorolone-treated participants were initially enrolled into VBP15-002 and VBP15-003 in 4 dose groups (0.25, 0.75, 2.0, and 6.0 mg/kg/day: groups A-D). Upon entering VBP15-LTE, vamorolone group A participants had 2 or 3 sequential dose escalations and were treated with 2.0 or 6.0 mg/kg/day for the last 3-9 months of the 18 months: group B participants had 1 or 2 dose escalations and were treated with 2.0 or 6.0 mg/kg/day for the last 9-11 months. Groups C and D were treated for 18 months at 2.0 or 6.0 mg/kg/day (S1 Fig).
The current study is the first to evaluate the longer-term tolerability, efficacy, and safety of vamorolone in DMD. […] Given the variable timing of dose escalations, it was prespecified that initial analyses of drug-related efficacy and safety would be limited to those participants who had 18 months of treatment with 2.0 mg/kg/day vamorolone or more (dose group C+dose group D: n=23). […]

[3] = test system: ambulant boys with DMD; assay: VBP15-004 growth (height Z score)
[4] = vamorolone 18 months versus corticosteroid-naïve participants

change in height Z scores from baseline to Week 24 ([3]; vamorolone 2.0 mg/kg/day): overall stable height change Z scores | change in height Z scores from baseline to Week 24 ([3]; vamorolone 6.0 mg/kg/day, p=0.02 versus prednisone): increased growth rate
SMILES: C[C@@H]1C[C@H]2[C@@H]3CCC4=CC(=O)C=C[C@]4(C)C3=CC[C@]2(C)[C@@]1(O)C(=O)CO [Vamorolone, 17α,21-dihydroxy-16α-methylpregna-1,4,9(11)-triene-3,20-dione]
dose-limiting toxicities ([1]; 0.25-6.0 mg/kg/day, 2 weeks of dosing): no dose-limiting toxicities | drug accumulation ([1]; day 1 vs day 14): no drug accumulation | TTCLIMB velocity, LS mean difference (SE) [2]: 0.059 (0.026) event/second | TTSTAND velocity, LS mean difference (SE) [2]: 0.042 (0.024) event/second | TTCLIMB velocity, LS mean difference (SE) ([2]; listed as vamorolone): 0.059 event/second | TTSTAND velocity, LS mean difference (SE) ([2]; listed as vamorolone): 0.042 event/second | TTCLIMB in seconds units, LS mean difference [2, 4]: -0.34 s | TTRW in seconds units, LS mean difference [2, 4]: -0.84 s
